According to ChEMBL document CHEMBL1817597, “Antifungal thiopeptide cyclothiazomycin B1 exhibits growth inhibition accompanying morphological changes via binding to fungal cell wall chitin” (Bioorg Med Chem, 2011):
≈ marks a conversion by molar mass, not a printed value. Calls of active or inactive are those of the source. The rule behind the calls is not given here.

Assays:
Fusarium solani [1] = experiment: Antimicrobial activity against Fusarium solani NBRC 8505 after 24 hrs by broth microdilution method; format: functional; conditions: NBRC 8505, 24 h
Aspergillus nidulans [2] = experiment: Antimicrobial activity against Aspergillus nidulans FGSC A4 at <6.55 uM after 24 hrs by broth microdilution method; format: functional, organism-based
Pseudomonas aeruginosa = experiment: Antimicrobial activity against Pseudomonas aeruginosa IFO 3080 after 24 hrs by broth microdilution method; format: functional, organism-based
Saccharomyces cerevisiae = experiment: Antimicrobial activity against Saccharomyces cerevisiae ATCC 7754 after 24 hrs by broth microdilution method; format: functional, organism-based
Rhodotorula mucilaginosa = experiment: Antimicrobial activity against Rhodotorula mucilaginosa IFO 0001 after 24 hrs by broth microdilution method; format: functional, organism-based
Aspergillus nidulans [3] = experiment: Antimicrobial activity against Aspergillus nidulans FGSC A4 after 24 hrs by broth microdilution method; format: functional; conditions: FGSC A4, 24 h
Mucor mucedo [4] = experiment: Antifungal activity against Mucor mucedo IFO 7684 under hyperosmotic shock at 0.026 uM after 2 days by paper disc method; format: functional, organism-based
Fusarium oxysporum [5] = experiment: Antimicrobial activity against Fusarium oxysporum IFO 7152 at <6.55 uM after 24 hrs by broth microdilution method; format: functional, organism-based
Rhizopus arrhizus = experiment: Antimicrobial activity against Rhizopus oryzae IFO 4766 at <6.55 uM after 24 hrs by broth microdilution method; format: functional, organism-based
Aspergillus niger = experiment: Antimicrobial activity against Aspergillus niger ATCC 6275 at <6.55 uM after 24 hrs by broth microdilution method; format: functional, organism-based
NIH3T3 = experiment: Cytotoxicity against mouse NIH/3T3 cells up to 65.5 uM after 24 hrs by Alamar blue assay; format: cell-based; conditions: nih3t3, 24 h
Mucor mucedo [6] = experiment: Antimicrobial activity against Mucor mucedo IFO 7684 after 24 hrs by broth microdilution method; format: functional; conditions: IFO 7684, 24 h
Fusarium oxysporum [7] = experiment: Binding affinity to cell wall polysaccharides in Fusarium oxysporum NBRC 5942 at 6.55 uM after 30 mins by HPLC analysis
Mucor mucedo [8] = experiment: Inhibition of chitin synthase in Mucor mucedo IFO 7684 assessed as incorporation of GlcNAc from [14C]-UDP-GlcNAc into acid-insoluble fractions at 4 ug/ml after 55 mins by liquid scintillation counting
[9] = Binding affinity to chitosan at 6.55 uM after 30 mins by HPLC analysis
Candida albicans = experiment: Antimicrobial activity against Candida albicans IFO 1061 after 24 hrs by broth microdilution method; format: functional, organism-based
Fusarium oxysporum [10] = experiment: Induction of morphological changes in Fusarium oxysporum NBRC 5942 assessed as thickening of hyphae at MIC after 24 hrs by microscopic analysis; format: functional, organism-based
Mucor mucedo [11] = experiment: Induction of morphological changes in Mucor mucedo IFO 7684 assessed as swelling of hyphae at tips at MIC after 24 hrs by microscopic analysis; format: functional, organism-based
[12] = test system: Fusarium sporotrichioides; experiment: Antimicrobial activity against Fusarium sporotrichioides NBRC 33236 at <6.55 uM after 24 hrs by broth microdilution method; format: functional
Fusarium oxysporum [13] = experiment: Antifungal activity against Fusarium oxysporum NBRC 5942 under hyperosmotic shock at 0.026 uM after 2 days by paper disc method; format: functional, organism-based
Mucor mucedo [14] = experiment: Inhibition of total protein synthesis in Mucor mucedo IFO 7684 assessed as [U-14C]-leucine uptake into acid-insoluble fractions at 0.13 uM after 25 mins by liquid scintillation counting relative to control; format: functional; conditions: IFO 7684, 25 min
Fusarium fujikuroi = experiment: Antimicrobial activity against Gibberella fujikuroi NBRC 6349 at <6.55 uM after 24 hrs by broth microdilution method; format: functional, organism-based
THP-1 = experiment: Cytotoxicity against human THP1 cells up to 65.5 uM after 24 hrs by Alamar blue assay; format: cell-based; conditions: thp-1, 24 h
[15] = test system: Schizosaccharomyces pombe; experiment: Antimicrobial activity against Schizosaccharomyces pombe IFO 0342 after 24 hrs by broth microdilution method; format: functional, organism-based
Fusarium avenaceum = experiment: Antimicrobial activity against Fusarium avenaceum NBRC 33237 at <6.55 uM after 24 hrs by broth microdilution method; format: functional, organism-based
Mucor javanicus = experiment: Antimicrobial activity against Mucor javanicus IFO 4569 at <6.55 uM after 24 hrs by broth microdilution method; format: functional
Mucor mucedo [16] = experiment: Effect on cell wall re-generation in Mucor mucedo IFO 7684 spheroplasts at 0.026 uM after 12 hrs by microscopic analysis; format: functional
Fusarium oxysporum [17] = experiment: Antimicrobial activity against Fusarium oxysporum NBRC 30700 after 24 hrs by broth microdilution method; format: functional; conditions: NBRC 30700, 24 h
Micrococcus luteus = experiment: Antimicrobial activity against Micrococcus luteus IFO 3333 after 24 hrs by broth microdilution method; format: functional, organism-based
Mucor mucedo [18] = experiment: Inhibition of chitin synthase in germinated Mucor mucedo IFO 7684 assessed as incorporation of GlcNAc from [14C]-UDP-GlcNAc into acid-insoluble fractions at 2.61 uM after 60 mins by liquid scintillation counting relative to control
Aspergillus fumigatus = experiment: Antimicrobial activity against Aspergillus fumigatus IFO 5840 after 24 hrs by broth microdilution method; format: functional; conditions: IFO 5840, 24 h
Fusarium solani [19] = experiment: Antimicrobial activity against Fusarium solani NBRC 5899 after 24 hrs by broth microdilution method; format: functional; conditions: NBRC 5899, 24 h
Mucor mucedo [20] = experiment: Induction of morphological changes in Mucor mucedo IFO 7684 assessed as thickening of hyphae at 0.026 uM after 24 hrs by microscopic analysis in presence of 100 uM of PKA inhibitor H8; format: functional, organism-based
Mucor mucedo [21] = experiment: Antifungal activity against Mucor mucedo IFO 7684 under hypoosmotic shock assessed as increase of fragility of organism at 0.026 uM after 24 hrs measured after distilled water treatment for 10 mins by microscopic analysis; format: functional, organism-based
Fusarium solani [22] = experiment: Antimicrobial activity against Fusarium solani NBRC 5899 at <6.55 uM after 24 hrs by broth microdilution method; format: functional, organism-based
Bacillus subtilis = experiment: Antimicrobial activity against Bacillus subtilis IFO 3007 after 24 hrs by broth microdilution method; format: functional, organism-based
Fusarium oxysporum [23] = experiment: Antimicrobial activity against Fusarium oxysporum IFO 7152 after 24 hrs by broth microdilution method; format: functional; conditions: IFO 7152, 24 h
Fusarium oxysporum [24] = experiment: Antifungal activity against Fusarium oxysporum NBRC 5942 under hypoosmotic shock assessed as increase of fragility of organism at 0.026 uM after 24 hrs measured after distilled water treatment for 10 mins by microscopic analysis; format: functional, organism-based
LLC-PK1 = experiment: Cytotoxicity against pig LLC-PK1 cells up to 65.5 uM after 24 hrs by Alamar blue assay; format: cell-based, Sus scrofa; conditions: llc-pk1, 24 h
[25] = Binding affinity to chemically deacetylated chitin at 6.55 uM after 30 mins by HPLC analysis
Fusarium graminearum = experiment: Antimicrobial activity against Gibberella zeae NBRC 8850 after 24 hrs by broth microdilution method; format: functional; conditions: NBRC 8850, 24 h
Escherichia coli = experiment: Antimicrobial activity against Escherichia coli IFO 3545 after 24 hrs by broth microdilution method; format: functional, organism-based
Fusarium oxysporum [26] = experiment: Antimicrobial activity against Fusarium oxysporum NBRC 30700 at <6.55 uM after 24 hrs by broth microdilution method; format: functional, organism-based
[27] = test system: Fusarium sporotrichioides; experiment: Antimicrobial activity against Fusarium sporotrichioides NBRC 33236 after 24 hrs by broth microdilution method; format: functional; conditions: NBRC 33236, 24 h
Fusarium oxysporum [28] = experiment: Antimicrobial activity against Fusarium oxysporum NBRC 5942 after 24 hrs by broth microdilution method; format: functional; conditions: NBRC 5942, 24 h

For `C=C1NC(=O)[C@H]2CSC(=N2)c2csc(n2)-c2ccc3c(n2)[C@H](C)NC(=O)[C@@H]2CCCN2C(=O)/C(=C/C)NC(=O)CNC(=O)[C@H](CCCNC(=N)N)NC(=O)C(C)(NC(=O)/C(=C/C)NC(=O)C2CSC(=N2)[C@H](CC(N)=O)NC3=O)SC[C@@H](C(=O)O)NC(=O)[C@H]2CSC(=N2)c2csc(n2)-c2csc1n2` [CYCLOTHIAZOMYCIN B1], the MIC (Fusarium solani [1]) was 0.25 µg/mL (≈ 0.164 µM), the Activity (Aspergillus nidulans [2]) was “inactive” and the Activity (Pseudomonas aeruginosa) was “inactive”. The Activity (Saccharomyces cerevisiae) was “inactive”, the Activity (Rhodotorula mucilaginosa) was “inactive” and the MIC (Aspergillus nidulans [3]) was over 1000 µg/mL. For the same molecule, the Activity (Mucor mucedo [4]) was “inactive”, the Activity (Fusarium oxysporum [5]) was “inactive” and the Activity (Rhizopus arrhizus) was “inactive”. For the same molecule, the Activity (Aspergillus niger) was “inactive”, the Activity (NIH3T3) was “Non-toxic” and the MIC (Mucor mucedo [6]) was 0.039 µg/mL (≈ 0.0255 µM). For the same molecule, the Activity (Fusarium oxysporum [7]) was “inactive”, the inhibition (Mucor mucedo [8]) was “inactive” and the Activity [9] was “inactive”. The Activity (Candida albicans) was “inactive”, the Activity (Fusarium oxysporum [10]) was “Active” and the Activity (Mucor mucedo [11]) was “Active”. For the same molecule, the Activity [12] was “inactive”, the Activity (Fusarium oxysporum [13]) was “inactive” and the inhibition at 0.13 µM (Mucor mucedo [14]) was 37%. For the same molecule, the Activity (Fusarium fujikuroi) was “inactive”, the Activity (THP-1) was “Non-toxic” and the Activity [15] was “inactive”. The Activity (Fusarium avenaceum) was “inactive”, the Activity (Mucor javanicus) was “inactive” and the Activity (Mucor mucedo [16]) was “Active”. The MIC (Fusarium oxysporum [17]) was 0.25 µg/mL (≈ 0.164 µM), the Activity (Micrococcus luteus) was “inactive” and the inhibition (Mucor mucedo [18]) was 64%. For the same molecule, the MIC (Aspergillus fumigatus) was over 1000 µg/mL, the MIC (Fusarium solani [19]) was 0.25 µg/mL (≈ 0.164 µM) and the Activity (Mucor mucedo [20]) was “Active”. The Activity (Mucor mucedo [21]) was “Active”, the Activity (Fusarium solani [22]) was “inactive” and the Activity (Bacillus subtilis) was “inactive”. For the same molecule, the MIC (Fusarium oxysporum [23]) was 0.25 µg/mL (≈ 0.164 µM), the Activity (Fusarium oxysporum [24]) was “Active” and the Activity (LLC-PK1) was “Non-toxic”. For the same molecule, the Activity [25] was “inactive”, the MIC (Fusarium graminearum) was 0.063 µg/mL (≈ 0.0412 µM) and the Activity (Escherichia coli) was “inactive”. The Activity (Fusarium oxysporum [26]) was “inactive”, the MIC [27] was 0.031 µg/mL (≈ 0.0203 µM) and the MIC (Fusarium oxysporum [28]) was 0.5 µg/mL (≈ 0.327 µM).
